{"source": "patent US12612358B2", "about": "“Resorcinol-based compounds and uses thereof” (priority 2020, dated 2026)", "key": {"mouse 4T1 TNBC": {"test_system": "mouse 4T1 TNBC", "test": "Cell proliferation, 4T1 TNBC cells", "type": "cell-based", "conditions": "mouse 4T1 TNBC cells; read-out: IC50 group for inhibition of cell proliferation"}, "[1]": {"molecular_target": "T1, ADRB1 (β-Adrenergic receptor) (Homo sapiens, UniProt P08588)", "T1 construct": "purchased Eurofin's", "T1 sequence (P08588 whole entry)": "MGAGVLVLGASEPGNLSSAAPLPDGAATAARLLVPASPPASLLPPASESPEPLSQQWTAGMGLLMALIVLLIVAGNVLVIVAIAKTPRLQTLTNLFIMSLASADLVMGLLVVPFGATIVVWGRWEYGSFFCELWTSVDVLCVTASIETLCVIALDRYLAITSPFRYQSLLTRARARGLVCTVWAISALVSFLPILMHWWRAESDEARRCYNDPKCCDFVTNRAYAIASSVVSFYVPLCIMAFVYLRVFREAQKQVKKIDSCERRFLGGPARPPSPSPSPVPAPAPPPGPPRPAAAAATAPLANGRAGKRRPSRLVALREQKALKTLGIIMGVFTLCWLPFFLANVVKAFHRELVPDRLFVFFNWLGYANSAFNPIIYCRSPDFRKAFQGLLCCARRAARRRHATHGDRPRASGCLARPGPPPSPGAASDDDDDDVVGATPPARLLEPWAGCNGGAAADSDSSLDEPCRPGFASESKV", "test": "SAFETY scan E/IC50 ELECT, ADRB1", "type": "biochemical", "conditions": "read-out: inhibition against ADRB1 (mild)"}, "PANC-1 tumors": {"test_system": "PANC-1 tumors", "test": "PANC-1 subcutaneous xenograft in athymic nu/nu mice", "type": "in vivo"}, "PANC-1": {"test_system": "PANC-1", "test": "CellTiter-Glo cell proliferation, PANC-1 pancreatic cancer cells", "type": "cell-based, human", "text": "Cell culture and treatment of pancreatic cancer cell lines: Pancreatic cancer cells lines BxPC-3, SW1990, and PANC-1 used in the experiments presented herein can be obtained from ATCC. The cells can be cultured and passaged in complete growth medium (RPMI-1640, Dulbecco's Modified Eagle Medium, or Leibovitz's L-15 medium) that has been supplemented with fetal bovine serum to a final concentration of 10%.\nEffects of Compound-5B on proliferation and Id-1 expression in pancreatic cell lines. Compound-5B was next tested for inhibition of cell viability/proliferation in the three pancreatic cancer cell lines and two primary patient-derived cancer cell lines. Compound-5B inhibited cell viability/proliferation of all the cancer cell lines (Table 2). The culturing condition for the pancreatic cell lines was similar to those used in the breast cancer lines, with the exception of the primary patient-derived pancreatic cancer cell lines (PANC9 and PANC13). For determining inhibition of cell proliferation in patient-derived pancreatic cancer cells were cultured in a T75 ultra low attachment flasks with DMEM/F12 media supplemented with B27, penicillin/streptomycin (10,000 u/mL), 50 µg/mL human epidermal growth factor (hEGF), 50 μg/mL human fibroblast growth factor, and 5 μg/mL heparin. Cells were plated in a 384-well plate and incubated for three days to promote the formation of tumorspheres. Cells were then treated with Compound-5B for three days. Cell proliferation of pancreatic cells in the presence of drug was measured using the CellTiter-Glo luminescent Assay and IC50 values were calculated (Table 2). The IC50 and corresponding 95% confidence limits (CL) were calculated using non-linear regression analysis."}, "[2]": {"test_system": "MDA-MB231 breast cancer cells", "test": "Combination with paclitaxel, viability of MDA-MB231 cells (combination index)", "type": "cell-based, human", "conditions": "combination with paclitaxel at optimal combined ratios", "description": "Concentration-response curves were generated for Compound-5B and paclitaxel alone and in combination (FIG. 2C). The inhibitory values from the concentration response curves were used to calculate combination index (CI) values at multiple combination ratios (FIG. 3A). Methods: Multiple viability assays in a 384 well format were run for each compound and the average percent inhibition of cell viability was calculated and transformed to fraction affected (Fa) e.g., percent inhibitory effect. CI values were calculated using Compusyn software (FIG. 3B). After determining the (IC50/Fa 0.5) values of the drugs individually (C), components were then combined at specific concentration ranges (FIG. 3B) and a combination index was calculated where CI<1, =1, and >1 indicate synergism, additive effect, and antagonism, respectively."}, "468 kinases": {"test_system": "468 kinases", "test": "Eurofin's Kinome scan assay", "conditions": "1 μM and 10 μM"}, "Id-1": {"test_system": "Id-1", "test": "Id-1 expression in PANC-1 cells (Western analysis)", "type": "cell-based, human", "description": "Quantitative Western analysis: Cells are cultured and treated in 6-well dishes. After the cells are washed twice with cold PBS, lysis buffer is added. The cells are then lysed by freezing for 10 min at −70° C. and then thawing at ambient temperature. The cell lysate is collected and the protein content is determined by using Bradford reagent. Equal amounts of protein are heated at 90° C. in Laemmli sample buffer which also included β-mercaptoethanol. The samples are then loaded onto a precast SDS-PAGE gel (Bio-Rad Laboratories, Hercules, CA). After which, proteins are then electroblotted onto an Immobilon membrane (Millipore, Billerica, MA) overnight at 2-4° C. The membrane is then blocked for 1 hour with 5% nonfat dry milk which included TBS+Tween. The membranes are then incubated with an anti-Id-1 primary antibody, and then an appropriate secondary antibody was used. Blots are incubated for 45 min and then washed 4 times with TBS+Tween for 15 min each. The blots are developed with SuperSignal Femto (Pierce, Rockford, IL), and imaged on either a Fluorchem 8900 (Alpha Innotech, San Leandro, CA) or ECL Hyperfilm (Amersham-Pharmacia, Piscataway, NJ). Band intensity values are obtained (after background subtraction) directly from the […] using AlphaeaseFC software (San Leandro, CA) or from film using Image-J (NIH, MD). […]"}, "CYP2C8": {"molecular_target": "T2, CYP2C8 (Homo sapiens, UniProt P10632)", "T2 construct": "purchased Eurofins", "T2 sequence (P10632 whole entry)": "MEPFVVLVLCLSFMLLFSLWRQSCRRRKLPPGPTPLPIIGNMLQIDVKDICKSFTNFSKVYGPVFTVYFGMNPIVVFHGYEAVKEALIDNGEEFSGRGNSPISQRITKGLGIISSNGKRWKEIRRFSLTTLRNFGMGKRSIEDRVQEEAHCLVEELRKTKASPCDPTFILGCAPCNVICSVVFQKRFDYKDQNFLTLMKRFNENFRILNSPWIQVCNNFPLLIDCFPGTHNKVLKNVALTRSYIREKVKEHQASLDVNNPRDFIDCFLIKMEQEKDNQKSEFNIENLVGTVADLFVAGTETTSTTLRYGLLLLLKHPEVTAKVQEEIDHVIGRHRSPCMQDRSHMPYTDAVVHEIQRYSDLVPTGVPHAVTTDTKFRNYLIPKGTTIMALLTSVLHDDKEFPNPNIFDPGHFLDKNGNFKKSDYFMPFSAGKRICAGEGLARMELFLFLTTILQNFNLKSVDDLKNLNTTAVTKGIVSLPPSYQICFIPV", "test": "CYP2C8 inhibition", "type": "in vitro ADME", "conditions": "10 μM", "description": "(§1) Evaluating ADME of Compound-5B in vitro. It is important to evaluate ADME first in culture as it allows for the selection of the best candidate for PK analysis in vivo. ADME analysis of Compound-5B was performed by Eurofins."}, "cannabinoid receptors": {"test_system": "cannabinoid receptors", "test": "Cannabinoid receptor binding"}, "[3]": {"test": "Mouse liver microsome stability (Eurofins ADME)", "type": "in vitro ADME", "description": "as §1"}}}
{"compound": "CCCCCCC(C)(C)c1cc(O)c(C(=O)Nc2ccccc2)c(O)c1", "note": "[Compound 5B, 2,6-dihydroxy-4-(2-methyloctan-2-yl)-N-phenylbenzamide]", "values": [{"measurement": "IC50", "setting": "mouse 4T1 TNBC", "value": "500 to 1000", "unit": "nM"}, {"measurement": "IC50", "setting": "[1]", "value": "640 to 750", "unit": "nM"}, {"measurement": "weight loss (metric of drug toxicity)", "setting": "PANC-1 tumors; PANC-1 tumor mice, Compound-5B 10 mg/kg i.p. daily, gemcitabine 50 mg/kg i.p. three times a week", "value": "no significant weight loss"}, {"measurement": "growth of PANC-1 tumors", "setting": "PANC-1 tumors; athymic nu/nu mice, 10 mg/kg i.p. once daily", "value": "reduced the growth of PANC-1 tumors as effectively as gemcitabine"}, {"measurement": "IC50", "setting": "PANC-1; Homo sapiens, PANC-1, read-out: IC50 category", "value": "< 500", "unit": "nM"}, {"measurement": "improvement in potency (IC50) compared to the parent compound CBD", "setting": "PANC-1; PANC-1 (by context)", "value": 38, "unit": "fold"}, {"measurement": "effect on paclitaxel inhibition of cell viability", "setting": "[2]", "value": "can enhance the ability of paclitaxel to inhibit the viability"}, {"measurement": "inhibition of 468 kinases", "setting": "468 kinases", "value": "No significant inhibition"}, {"measurement": "inhibition of Id-1 expression", "setting": "Id-1", "value": "able to effectively inhibit Id-1 expression"}, {"measurement": "inhibition of CYP2C8", "setting": "CYP2C8", "value": "some inhibition"}, {"measurement": "binding to the cannabinoid receptors", "setting": "cannabinoid receptors", "value": "does not bind"}, {"measurement": "clearance (microsomal stability assays)", "setting": "[3]", "value": "acceptable"}, {"measurement": "half-life (microsomal stability assays)", "setting": "[3]", "value": "acceptable"}, {"measurement": "stability in mouse liver microsomes", "setting": "[3]", "value": "good"}]}
